# According to ChEMBL document CHEMBL1152391, “Development of a selective and potent radioactive ligand for histamine H(3) receptors: A compound potentially useful for receptor occupancy studies” (Bioorg Med Chem Lett, 2009):
# Calls of active or inactive are those of the source. No cut-off for these calls is given here.
# Experiments:
# [1] = biological target: Histamine H3 receptor (Mus musculus) (UniProt P58406); test: Inverse agonist activity at mouse histamine H3 receptor overexpressed in HEK293 cells by [35S]GTPgammaS binding assay relative to basal level; format: functional, cell-based; details: concentration not given here
# Histamine H3 receptor (Mus musculus), sequence (P58406 whole entry): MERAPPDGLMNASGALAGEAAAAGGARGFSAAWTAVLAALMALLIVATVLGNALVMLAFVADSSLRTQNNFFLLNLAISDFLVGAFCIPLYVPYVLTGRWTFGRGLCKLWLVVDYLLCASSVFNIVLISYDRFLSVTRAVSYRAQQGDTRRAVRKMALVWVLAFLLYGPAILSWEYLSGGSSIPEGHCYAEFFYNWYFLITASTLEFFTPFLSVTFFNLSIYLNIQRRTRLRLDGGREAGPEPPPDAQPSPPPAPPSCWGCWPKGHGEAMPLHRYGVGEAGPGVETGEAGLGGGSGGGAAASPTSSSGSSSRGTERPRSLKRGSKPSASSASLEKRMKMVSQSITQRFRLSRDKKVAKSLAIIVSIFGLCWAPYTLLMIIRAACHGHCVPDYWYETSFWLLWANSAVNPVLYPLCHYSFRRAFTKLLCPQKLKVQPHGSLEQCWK
# Histamine H3 receptor [2] = biological target: T1, Histamine H3 receptor (Mus musculus, UniProt P58406); test: biochemical
# T1 sequence (P58406 whole entry): as above
# Histamine H3 receptor [3] = biological target: T1, Histamine H3 receptor; test: Inverse agonist activity at mouse histamine H3 receptor overexpressed in HEK293 cells by [35S]GTPgammaS binding assay; format: functional, cell-based
# Histamine H2 receptor = Histamine H2 receptor (Homo sapiens, UniProt P25021); test: Inhibition of histamine H2 receptor
# Histamine H2 receptor, sequence (P25021 whole entry): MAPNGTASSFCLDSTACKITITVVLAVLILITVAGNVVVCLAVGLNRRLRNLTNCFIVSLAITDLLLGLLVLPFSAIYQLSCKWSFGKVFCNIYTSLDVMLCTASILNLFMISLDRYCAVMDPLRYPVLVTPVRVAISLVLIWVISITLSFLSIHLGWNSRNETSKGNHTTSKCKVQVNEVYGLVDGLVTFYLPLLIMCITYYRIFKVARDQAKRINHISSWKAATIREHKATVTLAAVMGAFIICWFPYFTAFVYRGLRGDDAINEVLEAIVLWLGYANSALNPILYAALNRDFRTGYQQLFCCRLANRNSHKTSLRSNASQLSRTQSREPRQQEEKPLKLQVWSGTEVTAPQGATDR
# Histamine H1 receptor = Histamine H1 receptor (Homo sapiens, UniProt P35367); test: Inhibition of histamine H1 receptor
# Histamine H1 receptor, sequence (P35367 whole entry): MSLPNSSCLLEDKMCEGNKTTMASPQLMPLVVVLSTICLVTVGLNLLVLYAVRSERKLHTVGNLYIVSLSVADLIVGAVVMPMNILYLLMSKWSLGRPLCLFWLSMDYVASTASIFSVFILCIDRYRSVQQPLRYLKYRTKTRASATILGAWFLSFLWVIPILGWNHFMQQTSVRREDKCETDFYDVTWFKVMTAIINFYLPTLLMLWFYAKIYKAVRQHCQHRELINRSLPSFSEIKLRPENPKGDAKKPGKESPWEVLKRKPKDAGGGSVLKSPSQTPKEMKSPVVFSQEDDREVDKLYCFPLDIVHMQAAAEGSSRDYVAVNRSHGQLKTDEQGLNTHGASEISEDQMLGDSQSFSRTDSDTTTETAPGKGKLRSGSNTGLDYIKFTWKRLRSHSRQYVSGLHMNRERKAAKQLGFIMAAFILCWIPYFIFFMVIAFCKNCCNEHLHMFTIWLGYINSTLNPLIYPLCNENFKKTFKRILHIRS
# Brain [4] = test: Drug level in Sprague-Dawley rat brain at 10 mg/kg, po after 2 hrs; format: ADME, organism-based; parameters: dose 10 mg/kg, route oral; details: in vivo
# Brain [5] = test: Ex vivo binding affinity to histamine H3 receptor in wild type mouse coronal brain sections at 3 nM after 30 mins by receptor occupancy assay; format: functional, tissue-based; details: tested as the 3H-labelled form
# Histamine H3 receptor [6] = biological target: Histamine H3 receptor (Rattus norvegicus, UniProt Q9QYN8); test: Binding affinity to rat histamine H3 receptor by competitive binding assay
# Histamine H3 receptor (Rattus norvegicus, UniProt Q9QYN8), sequence (Q9QYN8 whole entry): as the sequence (P58406 whole entry) above, with A15T, T286A, G290A, H387R, V389I counted along it
# Histamine H4 receptor = Histamine H4 receptor (Homo sapiens, UniProt Q9H3N8); test: Inhibition of histamine H4 receptor
# Histamine H4 receptor, sequence (Q9H3N8 whole entry): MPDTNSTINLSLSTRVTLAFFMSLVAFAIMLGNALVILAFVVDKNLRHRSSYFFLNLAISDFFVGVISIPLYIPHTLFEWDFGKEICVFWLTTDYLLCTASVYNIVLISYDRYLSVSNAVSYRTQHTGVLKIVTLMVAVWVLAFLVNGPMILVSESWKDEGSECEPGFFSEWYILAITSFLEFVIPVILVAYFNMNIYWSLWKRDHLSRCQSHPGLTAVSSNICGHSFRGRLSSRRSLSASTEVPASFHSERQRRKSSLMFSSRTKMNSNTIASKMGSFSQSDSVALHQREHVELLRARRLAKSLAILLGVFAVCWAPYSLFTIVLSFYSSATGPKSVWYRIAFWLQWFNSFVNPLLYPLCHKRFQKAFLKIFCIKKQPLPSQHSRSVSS
# [7] = Plasma concentration in Sprague-Dawley rat at 10 mg/kg, po after 2 hrs; format: ADME, organism-based; parameters: dose 10 mg/kg, route oral
# [8] = Drug level in Sprague-Dawley rat cerebrospinal fluid at 10 mg/kg, po after 2 hrs; format: ADME, organism-based; parameters: dose 10 mg/kg, route oral; details: read-out: Drug uptake
# Histamine H3 receptor [9] = biological target: T1, Histamine H3 receptor; test: Binding affinity to histamine H3 receptor in wild type mouse brain membrane; format: cell membranes
# [10] = Lipophilicity, log d at pH 7.4; format: physicochemical; details: buffer
# Histamine H3 receptor [11] = biological target: T1, Histamine H3 receptor; test: Binding affinity to mouse histamine H3 receptor overexpressed in HEK293 cells; format: cell-based
smiles,measurement,setting,value
N=C(NCc1ccc(Cl)cc1)SCCCc1c[nH]cn1,inhibition,[1],14%
CNCCc1c[nH]cn1,Ki,Histamine H3 receptor [2],19 nM
S=C(NC1CCCCC1)N1CCC(c2cnc[nH]2)CC1 [THIOPERAMIDE],EC50,Histamine H3 receptor [3],11 nM
same,inhibition,[1],27%
same,Ki,Histamine H3 receptor [2],4.8 nM
NC(=NCc1ccc(Cl)cc1)SCCCc1cnc[nH]1 [CLOBENPROPIT],EC50,Histamine H3 receptor [3],1.7 nM
Cn1c(-c2ccc(OCCCN3CCCC3)cc2)nc2ccccc2c1=O,IC50,Histamine H2 receptor,> 10 µM
same,IC50,Histamine H1 receptor,> 10 µM
same,Drug uptake,Brain [4],2.22 nmol/g
same,EC50,Histamine H3 receptor [3],9.6 nM
same,Activity,Brain [5],Active
same,Ki,Histamine H3 receptor [6],12 nM
same,IC50,Histamine H4 receptor,> 10 µM
same,inhibition,[1],24%
same,concentration at 2 h,[7],1360 nM
same,concentration at 2 h,[8],134 nM
same,Ki,Histamine H3 receptor [2],2.4 nM
[3H]C([3H])([3H])n1c(-c2ccc(OCCCN3CCCC3)cc2)nc2ccccc2c1=O,Kd,Histamine H3 receptor [9],3.1 nM
same,logD,[10],1.2
same,Kd,Histamine H3 receptor [11],2.6 nM
NCCc1c[nH]cn1 [HISTAMINE],Ki,Histamine H3 receptor [2],68 nM
N=C(N)SCCc1cnc[nH]1 [IMETIT],Ki,Histamine H3 receptor [2],2 nM
